Data from the supplement of paper PMC10307832.

Assays:
Assay in all cases: relative viability (nuclei count vs DMSO), 5 days (fraction); higher = more cells survive
[1] = compound: C1CC(C1)(C(=O)O)C(=O)O.[NH2-].[NH2-].[Pt+2] [Carboplatin] + O=C(c1cc(Cc2n[nH]c(=O)c3ccccc23)ccc1F)N1CCN(C(=O)C2CC2)CC1 [Olaparib] (partner 8 µM)
How it was run: (§1)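 Values are medians from duplicate plates. Each reflects relative viability, defined as the nuclei count of treated wells over that of vehicle wells. Lung cancer cell lines in 1536-well plates were pin-tool dosed one day after seeding with one drug alone or with a fixed anchor-drug dose plus five library-drug doses (not always all listed) in √10 steps, then fixed, stained and imaged at 4× after 5 days.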

[2] = compound: CC[C@H](C)N1C=C(C2=C(C=C(C=C21)C3=CN=C(C=C3)N4CCNCC4)C(=O)NCC5=C(C=C(NC5=O)C)C)C [GSK126] + N=C(N)NC(=N)NCCc1ccccc1 [Phenformin] (partner 250 µM)
How it was run: as §1

[3] = compound: CC[C@H](C)N1C=C(C2=C(C=C(C=C21)C3=CN=C(C=C3)N4CCNCC4)C(=O)NCC5=C(C=C(NC5=O)C)C)C [GSK126] + Nc1nc2[nH]cc(CCc3ccc(C(=O)N[C@@H](CCC(=O)O)C(=O)O)cc3)c2c(=O)[nH]1 [Pemetrexed] (partner 0.2 µM)
How it was run: as §1

[4] = compound: CC[C@H](C)N1C=C(C2=C(C=C(C=C21)C3=CN=C(C=C3)N4CCNCC4)C(=O)NCC5=C(C=C(NC5=O)C)C)C [GSK126] + O=C(c1cc(Cc2n[nH]c(=O)c3ccccc23)ccc1F)N1CCN(C(=O)C2CC2)CC1 [Olaparib] (partner 8 µM)
How it was run: as §1

Cell Line	relative viability ([1]; first compound 0.08 µM)	relative viability ([1]; first compound 0.253 µM)	relative viability ([1]; first compound 0.8 µM)	relative viability ([1]; first compound 2.53 µM)	relative viability ([1]; first compound 8 µM)	relative viability ([2]; first compound 0.08 µM)	relative viability ([2]; first compound 0.253 µM)	relative viability ([2]; first compound 0.8 µM)	relative viability ([2]; first compound 2.53 µM)	relative viability ([2]; first compound 8 µM)	relative viability ([3]; first compound 0.08 µM)	relative viability ([3]; first compound 0.253 µM)	relative viability ([3]; first compound 0.8 µM)	relative viability ([3]; first compound 2.53 µM)	relative viability ([3]; first compound 8 µM)	relative viability ([4]; first compound 0.08 µM)	relative viability ([4]; first compound 0.253 µM)	relative viability ([4]; first compound 0.8 µM)	relative viability ([4]; first compound 2.53 µM)	relative viability ([4]; first compound 8 µM)
COR-L 105	0.766	0.756	0.518	0.544	0.456	0.5	0.547	0.596	0.529	0.513	1.08	0.987	0.887	1.11	1.12	0.586	0.628	0.732	0.583	0.631
COR-L23	0.329	0.3	0.301	0.246	0.157	0.504	0.445	0.437	0.435	0.404	0.229	0.194	0.188	0.185	0.183	0.422	0.33	0.33	0.354	0.387
NCI-H3122	0.644	0.584	0.562	0.559	0.622	0.405	0.367	0.364	0.351	0.319	0.203	0.208	0.185	0.204	0.209	0.713	0.712	0.628	0.654	0.628
NCI-H23	0.4	0.31	0.281	0.28	0.24	0.843	0.792	0.738	0.761	0.77	0.773	0.735	0.687	0.706	0.631	0.299	0.361	0.312	0.3	0.263
PC-3 [JPC-3]	1.23	1.14	1.12	1.04	0.835	0.478	0.489	0.48	0.456	0.489	1.15	1.04	1.08	1.22	1.08	1.1	1.14	1.09	1.15	1.12
NCI-H2228	0.927	0.514	0.553	0.645	0.436	0.43	0.295	0.376	0.337	0.365	0.374	0.312	0.354	0.312	0.392	0.649	0.75	0.511	0.669	0.691
NCI-H358	0.713	0.636	0.593	0.498	0.43	0.465	0.306	0.379	0.402	0.299	0.184	0.182	0.174	0.166	0.197	0.705	0.723	0.555	0.613	0.751
NCI-H2342	0.447	0.497	0.394	0.357	0.372	0.942	0.566	0.558	0.525	0.759	0.851	0.762	0.744	0.879	0.881	0.447	0.501	0.392	0.424	0.469
NCI-H2087	0.69	0.674	0.578	0.553	0.328	0.457	0.39	0.448	0.449	0.487	0.611	0.666	0.685	0.645	0.648	0.62	0.6	0.683	0.752	0.788
NCI-H596	0.6	0.617	0.623	0.601	0.585	0.913	0.761	0.751	0.948	0.829	0.496	0.464	0.441	0.45	0.472	0.713	0.703	0.702	0.847	0.758
ChaGo-K-1	0.43	0.409	0.376	0.332	0.362	0.541	0.535	0.446	0.415	0.431	0.256	0.269	0.265	0.256	0.254	0.419	0.419	0.432	0.5	0.431
SW 1573	0.579	0.552	0.477	0.493	0.234	0.41	0.4	0.376	0.439	0.423	0.945	0.981	0.934	1.08	0.877	0.609	0.542	0.582	0.621	0.49
LCLC-97TM1	0.334	0.524	0.353	0.506	0.332	0.359	0.459	0.455	0.389	0.374	0.19	0.193	0.171	0.179	0.194	0.494	0.596	0.413	0.507	0.445
HCC-366	0.387	0.363	0.364	0.288	0.208	0.687	0.641	0.574	0.644	0.543	0.179	0.161	0.14	0.149	0.158	0.451	0.386	0.366	0.396	0.342
HARA	0.881	0.794	0.806	0.775	0.692	0.607	0.434	0.476	0.367	0.38	0.247	0.258	0.231	0.215	0.215	0.994	0.911	0.934	0.861	0.657
NCI-H1915	0.253	0.257	0.225	0.22	0.21	0.412	0.374	0.404	0.359	0.371	0.573	0.484	0.504	0.477	0.484	0.271	0.277	0.25	0.266	0.269

Cell Line	relative viability ([1]; first compound 0.08 µM)	relative viability ([1]; first compound 0.253 µM)	relative viability ([1]; first compound 0.8 µM)	relative viability ([1]; first compound 2.53 µM)	relative viability ([1]; first compound 8 µM)	relative viability ([2]; first compound 0.08 µM)	relative viability ([2]; first compound 0.253 µM)	relative viability ([2]; first compound 0.8 µM)	relative viability ([2]; first compound 2.53 µM)	relative viability ([2]; first compound 8 µM)	relative viability ([3]; first compound 0.08 µM)	relative viability ([3]; first compound 0.253 µM)	relative viability ([3]; first compound 0.8 µM)	relative viability ([3]; first compound 2.53 µM)	relative viability ([3]; first compound 8 µM)	relative viability ([4]; first compound 0.08 µM)	relative viability ([4]; first compound 0.253 µM)	relative viability ([4]; first compound 0.8 µM)	relative viability ([4]; first compound 2.53 µM)	relative viability ([4]; first compound 8 µM)
NCI-H1650	0.85	0.815	0.752	0.492	0.471	0.531	0.404	0.44	0.361	0.358	0.393	0.437	0.39	0.302	0.344	0.742	0.849	0.761	0.784	0.901
NCI-H650	0.419	0.388	0.37	0.365	0.285	0.431	0.464	0.445	0.437	0.472	1.09	0.825	0.935	0.903	1.24	0.446	0.373	0.363	0.405	0.389
NCI-H2126	0.936	0.959	0.903	0.915	0.763	0.512	0.534	0.554	0.535	0.507	0.71	0.725	0.702	0.686	0.645	0.963	0.957	0.884	0.916	0.915
NCI-H838	0.773	0.746	0.757	0.683	0.575	0.652	0.468	0.522	0.487	0.555	0.245	0.231	0.229	0.239	0.24	0.82	0.817	0.738	0.714	0.769
NCI-H522	0.586	0.663	0.618	0.679	0.607	0.62	0.671	0.662	0.743	0.601	1.02	0.772	0.95	0.865	1.06	0.61	0.599	0.639	0.611	0.699
EPLC-272H	0.857	0.777	0.798	0.73	0.527	0.318	0.264	0.361	0.34	0.301	0.327	0.327	0.26	0.366	0.322	0.818	0.749	0.697	0.806	0.804
NCI-H1437	0.646	0.675	0.578	0.623	0.594	0.298	0.362	0.269	0.319	0.311	0.298	0.325	0.306	0.305	0.353	0.649	0.621	0.605	0.554	0.575
NCI-H2405	0.965	0.926	0.841	0.821	0.66	0.394	0.384	0.365	0.328	0.304	1.01	0.993	0.994	1.09	0.94	0.887	0.84	0.844	0.89	0.744
NCI-H1666	0.741	0.704	0.707	0.672	0.657	0.586	0.595	0.598	0.522	0.569	0.872	0.936	0.766	0.796	0.807	0.745	0.723	0.742	0.729	0.76
NCI-H1993	0.854	1.22	0.993	0.923	0.706	0.501	0.546	0.501	0.522	0.554	0.583	0.555	0.628	0.586	0.687	1.21	1.02	1	1.06	0.893
HCC-78	0.888	0.851	0.574	0.684	0.726	0.816	0.773	0.604	0.646	0.692	0.889	0.866	0.888	0.891	0.871	0.742	0.822	0.807	0.822	0.617
LU99A	0.296	0.272	0.253	0.236	0.214	1.09	0.881	0.94	0.93	0.855	0.181	0.165	0.185	0.179	0.155	0.245	0.258	0.266	0.243	0.232
NCI-H520	0.408	0.253	0.328	0.313	0.287	0.572	0.542	0.561	0.574	0.497	0.781	0.792	0.743	0.705	0.733	0.401	0.347	0.311	0.462	0.37
NCI-H661	0.73	0.794	0.675	0.737	0.729	0.277	0.264	0.691	0.269	0.244	0.982	0.897	0.991	0.914	0.967	0.706	0.74	0.722	0.689	0.705
NCI-H1975	0.961	0.79	0.735	0.747	0.747	0.465	0.412	0.392	0.422	0.405	0.276	0.306	0.304	0.305	0.277	0.785	0.789	0.721	0.809	0.762
NCI-H1355	0.808	0.734	0.677	0.694	0.595	0.524	0.448	0.434	0.454	0.391	1.15	1.12	0.996	1.03	1.06	0.809	0.754	0.772	0.752	0.774
